According to PubChem BioAssay AID248 (DTP/NCI, 2004):
“And” between values parts separate entries of the source, which are not always exact repeats. Equal values may be shown once. Toxic doses and inconclusive results are not listed. No stated cut-off is given here; in the data, active means T/C of 150% or more; inactive means T/C below 125%.

Tested on: L1210 leukemia ip in BDF1 mice, survival T/C
Test: NCI In Vivo Anticancer Drug Screen. Data for tumor model L1210 Leukemia (intraperitoneal) in B6D2F1 (BDF1) mice
Conditions: endpoint: mean survival time, higher = longer survival
Method in brief: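 Transplanted-tumor mice were given test agent; controls received vehicle only. Survival readings from the two groups were divided (treated over control).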

[1] = dose: 100.0 mg/kg/injection, schedule: Q01DX001 (ip), vehicle: carboxymethylcellulose (CMC)
[2] = dose: 200.0 mg/kg/injection, schedule: Q01DX001 (ip), vehicle: carboxymethylcellulose (CMC)
[3] = dose: 400.0 mg/kg/injection, schedule: Q01DX001 (ip), vehicle: carboxymethylcellulose (CMC)
[4] = dose: 100.0 mg/kg/injection, schedule: Q04DX003 (ip), vehicle: saline with Tween-80
[5] = dose: 200.0 mg/kg/injection, schedule: Q04DX003 (ip), vehicle: saline with Tween-80
[6] = dose: 400.0 mg/kg/injection, schedule: Q04DX003 (ip), vehicle: saline with Tween-80
[7] = dose: 100.0 mg/kg/injection, schedule: Q01DX009 (ip), vehicle: saline sonified
[8] = dose: 100.0 mg/kg/injection, schedule: Q04DX003 (ip), vehicle: Klucel (hydroxypropylcellulose) (HPC)
[9] = dose: 200.0 mg/kg/injection, schedule: Q01DX009 (ip), vehicle: saline sonified
[10] = dose: 200.0 mg/kg/injection, schedule: Q04DX003 (ip), vehicle: Klucel (hydroxypropylcellulose) (HPC)
[11] = dose: 400.0 mg/kg/injection, schedule: Q01DX009 (ip), vehicle: saline sonified
[12] = dose: 400.0 mg/kg/injection, schedule: Q04DX003 (ip), vehicle: Klucel (hydroxypropylcellulose) (HPC)
[13] = dose: 100.0 mg/kg/injection, schedule: Q01DX009 (ip), vehicle: Klucel (hydroxypropylcellulose) (HPC)
[14] = dose: 200.0 mg/kg/injection, schedule: Q01DX009 (ip), vehicle: Klucel (hydroxypropylcellulose) (HPC)
[15] = dose: 100.0 mg/kg/injection, schedule: Q01DX009 (ip), vehicle: saline with Tween-80
[16] = dose: 200.0 mg/kg/injection, schedule: Q01DX009 (ip), vehicle: saline with Tween-80
[17] = dose: 400.0 mg/kg/injection, schedule: Q01DX009 (ip), vehicle: saline with Tween-80
[18] = dose: 100.0 mg/kg/injection, schedule: Q04DX003 (ip), vehicle: saline
[19] = dose: 200.0 mg/kg/injection, schedule: Q04DX003 (ip), vehicle: saline
[20] = dose: 400.0 mg/kg/injection, schedule: Q04DX003 (ip), vehicle: saline
[21] = dose: 100.0 mg/kg/injection, schedule: Q01DX001 (ip), vehicle: Klucel (hydroxypropylcellulose) (HPC)
[22] = dose: 200.0 mg/kg/injection, schedule: Q01DX001 (ip), vehicle: Klucel (hydroxypropylcellulose) (HPC)
[23] = dose: 400.0 mg/kg/injection, schedule: Q01DX001 (ip), vehicle: Klucel (hydroxypropylcellulose) (HPC)

Measured: T/C

NC(=O)c1ccccc1NC(=O)Nc1ccc(F)cc1
inactive: [1] 104 % of control | dose: 100.0 mg/kg/injection, schedule: Q01DX009 (ip), vehicle: carboxymethylcellulose (CMC) 102 % of control and 105 % of control | dose: 100.0 mg/kg/injection, schedule: Q04DX002 (ip), vehicle: carboxymethylcellulose (CMC) 100 % of control and 101 % of control | dose: 100.0 mg/kg/injection, schedule: Q04DX003 (ip), vehicle: carboxymethylcellulose (CMC) 95 % of control | [2] 101 % of control | dose: 200.0 mg/kg/injection, schedule: Q01DX009 (ip), vehicle: carboxymethylcellulose (CMC) 98 % of control and 105 % of control | dose: 200.0 mg/kg/injection, schedule: Q04DX002 (ip), vehicle: carboxymethylcellulose (CMC) 101 % of control and 107 % of control | dose: 200.0 mg/kg/injection, schedule: Q04DX003 (ip), vehicle: carboxymethylcellulose (CMC) 102 % of control | [3] 93 % of control | dose: 400.0 mg/kg/injection, schedule: Q01DX009 (ip), vehicle: carboxymethylcellulose (CMC) 94 % of control and 102 % of control | dose: 400.0 mg/kg/injection, schedule: Q04DX002 (ip), vehicle: carboxymethylcellulose (CMC) 93 % of control and 96 % of control | dose: 400.0 mg/kg/injection, schedule: Q04DX003 (ip), vehicle: carboxymethylcellulose (CMC) 91 % of control

CC(=O)c1ccccc1N1CCCCC1
inactive: dose: 100.0 mg/kg/injection, schedule: Q04DX002 (ip), vehicle: saline 100 % of control | dose: 200.0 mg/kg/injection, schedule: Q04DX002 (ip), vehicle: saline 89 % of control

COC(=O)C1C=C2c3cccc4[nH]cc(c34)CC2N(C#N)C1 (centres undefined)
inactive: dose: 25.0 mg/kg/injection, schedule: Q04DX003 (ip), vehicle: alcohol 91 % of control | dose: 50.0 mg/kg/injection, schedule: Q04DX003 (ip), vehicle: alcohol 100 % of control | dose: 100.0 mg/kg/injection, schedule: Q04DX003 (ip), vehicle: alcohol 96 % of control | dose: 200.0 mg/kg/injection, schedule: Q04DX003 (ip), vehicle: alcohol 93 % of control | dose: 400.0 mg/kg/injection, schedule: Q04DX003 (ip), vehicle: alcohol 94 % of control

Nc1cc([N+](=O)[O-])cnc1NCCc1ccccc1
inactive: [4] 97 % of control | [5] 98 % of control | [6] 104 % of control

COC(=O)c1c(Cl)c(Cl)cc(Cl)c1Cl
inactive: [7] 106 % of control | [8] 93 % of control | [9] 113 % of control | [10] 98 % of control | [11] 107 % of control | [12] 106 % of control

CC(C)CCC(=O)OC1CCC2(C)C(=CCC3C2CCC2(C)C(O)CCC32)C1 (centres undefined)
inactive: dose: 100.0 mg/kg/injection, schedule: Q01DX001 (ip), vehicle: saline with Tween-80 92 % of control | dose: 200.0 mg/kg/injection, schedule: Q01DX001 (ip), vehicle: saline with Tween-80 93 % of control | dose: 400.0 mg/kg/injection, schedule: Q01DX001 (ip), vehicle: saline with Tween-80 101 % of control

COc1cc2c(cc1OC)C(CCc1ccc(Cl)cc1)N(C)CC2 (centres undefined)
inactive: dose: 12.5 mg/kg/injection, schedule: Q01DX009 (ip), vehicle: Klucel (hydroxypropylcellulose) (HPC) 113 % of control | dose: 25.0 mg/kg/injection, schedule: Q01DX009 (ip), vehicle: Klucel (hydroxypropylcellulose) (HPC) 108 % of control | dose: 50.0 mg/kg/injection, schedule: Q01DX009 (ip), vehicle: Klucel (hydroxypropylcellulose) (HPC) 104 % of control | [13] 116 % of control | [14] 113 % of control

Cc1ccc(NC(=O)COc2ccc(Cl)cc2Cl)c(C)c1
inactive: [15] 104 % of control | [4] 89 % of control | [16] 101 % of control | [5] 91 % of control | [17] 96 % of control | [6] 91 % of control

O=C1NC(=O)C2(CCCCCC2)N1
inactive: dose: 50.0 mg/kg/injection, schedule: Q01DX009 (ip), vehicle: saline with Tween-80 101 % of control | dose: 50.0 mg/kg/injection, schedule: Q04DX003 (ip), vehicle: saline with Tween-80 105 % of control | [7] 90 % of control | [15] 101 % of control | [4] 99 % of control and 111 % of control | [9] 96 % of control | [16] 98 % of control | [5] 100 % of control and 110 % of control | [11] 98 % of control | [6] 106 % of control

CCOC(=O)c1cnc(SC)nc1Sc1ccc(Cl)cc1
inactive: [15] 96 % of control | [4] 96 % of control | [16] 94 % of control | [5] 96 % of control | [17] 98 % of control | [6] 94 % of control

COc1ccc(OC)c2c(C(O)CNC34CC5CC(CC(C5)C3)C4)cc(-c3ccc(Cl)cc3)nc12 (centres undefined)
inactive: [18] 97 % of control | [19] 92 % of control | [20] 92 % of control

O=C(Nc1scc2c1sc1ccccc12)c1ccccc1
inactive: [21] 93 % of control | [22] 93 % of control | [23] 107 % of control

Cc1nc2cc(N=Cc3ccc(N(CCCl)CCCl)cc3Cl)ccc2n1C
inactive: dose: 100.0 mg/kg/injection, schedule: Q04DX002 (ip), vehicle: Klucel (hydroxypropylcellulose) (HPC) 104 % of control | dose: 200.0 mg/kg/injection, schedule: Q04DX002 (ip), vehicle: Klucel (hydroxypropylcellulose) (HPC) 104 % of control | dose: 400.0 mg/kg/injection, schedule: Q04DX002 (ip), vehicle: Klucel (hydroxypropylcellulose) (HPC) 104 % of control

CN(C(=O)c1ccc(Cl)c(Cl)c1)C(c1ccco1)P(=O)(c1ccccc1)c1ccccc1 (centres undefined)
inactive: [15] 90 % of control | dose: 100.0 mg/kg/injection, schedule: Q04DX002 (ip), vehicle: saline with Tween-80 96 % of control | [16] 103 % of control | dose: 200.0 mg/kg/injection, schedule: Q04DX002 (ip), vehicle: saline with Tween-80 90 % of control | [17] 93 % of control | dose: 400.0 mg/kg/injection, schedule: Q04DX002 (ip), vehicle: saline with Tween-80 93 % of control

CCC[CH2][Sn]1([CH2]CCC)[O]C(=O)C2C(C(=O)[O]1)C1(Cl)C(Cl)=C(Cl)C2(Cl)C1(Cl)Cl (centres undefined)
inactive: dose: 44.0 mg/kg/injection, schedule: Q01DX001 (ip), vehicle: saline 98 % of control | dose: 45.0 mg/kg/injection, schedule: Q01DX001 (ip), vehicle: saline 97 % of control | dose: 67.0 mg/kg/injection, schedule: Q01DX001 (ip), vehicle: saline 95 % of control and 101 % of control | dose: 100.0 mg/kg/injection, schedule: Q01DX001 (ip), vehicle: saline 98 % of control and 103 % of control | dose: 150.0 mg/kg/injection, schedule: Q01DX001 (ip), vehicle: saline 123 % of control

c1ccc2cc(Sc3ncnc4nc[nH]c34)ccc2c1
inactive: [15] 97 % of control | [4] 105 % of control | [16] 103 % of control | [5] 98 % of control | [17] 97 % of control | [6] 98 % of control

Nc1cc(Cl)c2n[nH]nc2n1
inactive: dose: 75.0 mg/kg/injection, schedule: Q01DX001 (ip), vehicle: other 96 % of control | dose: 150.0 mg/kg/injection, schedule: Q01DX001 (ip), vehicle: other 102 % of control | dose: 300.0 mg/kg/injection, schedule: Q01DX001 (ip), vehicle: other 100 % of control

Nc1nc2ncc(CN(C(=O)C(F)(F)F)c3ccc(C(=O)NC(CCC(=O)O)C(=O)O)cc3)nc2c(=O)[nH]1 (centres undefined)
inactive: [21] 100 % of control | [22] 107 % of control | [23] 111 % of control

Cc1cccnc1NC(=O)NCCCl
inactive: [1] 101 % of control | [13] 92 % of control | [18] 98 % of control | [2] 103 % of control | [14] 93 % of control | [19] 97 % of control | [3] 103 % of control | [20] 89 % of control

Cc1cc(OC(=O)/C=C/C(=O)Oc2cc(C)c(Cl)c(C)c2)cc(C)c1Cl
inactive: [13] 97 % of control | [8] 105 % of control | [14] 95 % of control | [10] 104 % of control | dose: 400.0 mg/kg/injection, schedule: Q01DX009 (ip), vehicle: Klucel (hydroxypropylcellulose) (HPC) 97 % of control | [12] 104 % of control
